Measured values published in US20230255943A1, “MMP-9 AND MMP-12 INHIBITION FOR TREATING SPINAL CORD INJURY OR RELATED INJURY TO NEUROLOGICAL TISSUE” (The University of Birmingham, priority 2020, published 2023).

Tests used:
[1] = tested on: mice with DC crush injury; assay: Immunohistochemistry of CD11b, CD68 and GFAP at lesion site; assay type: in vivo, mouse; settings: immediate or delayed by 24 h
Text: After killing animals by exposure to rising concentrations of CO2, mice were intracardially perfused with 4% formaldehyde (TAAB Laboratories, Berkshire, UK) in 0.1M phosphate buffered saline (PBS). The lesion site+5 mm either side were dissected out, post-fixed in 4% formaldehyde and subjected to a graded series of sucrose solutions for cryoprotection. Spinal cords were blocked in OCT mounting compound (TAAB laboratories), sectioned longitudinally at 15 μm-thick using a cryostat (Brights Instruments, Huntingdon, UK) before being collected on charged glass slides (ThermoFisher Scientific, Loughborough, UK) and kept at −20° C. until required. Slides were numbered consecutively and sections from the middle of the lesion site were chosen for all immunohistochemical analyses, as described by previously (Surey S, Berry M, Logan A, Bicknell R, Ahmed Z. Differential cavitation, angiogenesis and wound-healing responses in injured mouse and rat spinal cords. Neuroscience 2014; 275: 62-80).
Fluorescent immunohistochemistry was performed as described previously (S. Surey, M. Berry, A. Logan, R. Bicknell, Z. Ahmed, Differential cavitation, angiogenesis and wound-healing responses in injured mouse and rat spinal cords. Neuroscience 275, 62-80 (2014)). […] Laminin was detected at 4 weeks after DC injury and treatment using a rabbit polyclonal anti-laminin primary antibody (ab11575; 1:400 dilution, Abcam). Macrophages were detected with a rabbit polyclonal anti-CD68 antibody (ab1525212; 1:500 dilution, Abcam); microglia were detected using a rabbit polyclonal antibody to CD11b (ab128797, 1:500 dilution, Abcam); GFAP was detected using a polyclonal anti-GFAP antibody (SAB5700611, 1:400 dilution, Sigma) were all detected at 10 days after DC injury and treatment. Semaphorin-3A (Sema-3A) and chondroitin sulphate proteoglycan (CSPG) was detected using monoclonal anti-CS-56 antibody (C8035; 1:200 dilution, Sigma) at 7 days after injury. […] CTB labelled axons in the mouse were detected using a goat polyclonal anti-CTB antibody (#703; 1:1000 dilution, List Biological Labs) at 6 weeks after DC injury. […]

[2] = tested on: rats with DC crush injury; assay: CAP traces after DC injury in rats; assay type: in vivo; settings: rat DC injury, 6 weeks
Experimental: The efficacy of oral AZD3342 in the DC injury model in adult Sprague-Dawley rat was also assessed. Animals were divided into 6 groups: (1), Sham (control); (2), DC crush injury+Vehicle; (3), DC crush injury+15 mg/kg AZD3342; (4), DC crush injury+75 mg/kg […]; (5), DC crush injury+375 mg/kg AZD3342; and (6), DC crush injury+Melatonin. Animals were dosed twice daily with oral AZD3342 or vehicle with the experimenters masked to the treatment conditions. These experiments were performed with n=6 rats/group and repeated on 2-3 independent occasions (total n=12-18 rats/group/test).
Compound action potentials (CAP) were recorded at 6 w weeks after DC injury and treatment, as described previously—for example B. C. Hains, C. Y. Saab, A. C. […]
Briefly, the experimenter was masked to the treatment status of the animals and the CAP amplitude was calculated between the negative deflection after the stimulus artifact and the next peak of the wave. CAP area was also calculated by rectifying the CAP component (full-wave rectification) and measuring its area. To confirm our recordings and that a CAP could not be recorded, the dorsal half of the spinal cord was transected after each experiment between the stimulating and recording electrodes.

SMILES | CD11b immunoreactivity at the lesion site [1] | CD68 immunoreactivity at the lesion site [1] | GFAP+ immunoreactivity at the lesion site [1] | electrophysiological CAP traces [2]
C[C@]1(CS(=O)(=O)N2CC=C(C#Cc3cnc(C4CC4)nc3)CC2)NC(=O)NC1=O [AZD1236] | significantly reduced | significantly reduced | significantly reduced | 
C[C@]1(CS(=O)(=O)N2CCC(Oc3ccc(Cl)cn3)CC2)NC(=O)NC1=O [AZD3342, (5S)-5-[4-(5-chloro-pyridin-2-yloxy)-piperidine-1-sulfonylmethyl]-5-methylimidazolidine-2,4-dione] |  |  |  | significantly improved
